Experimental data reported in paper PMC9578396, “Intrinsic Antibacterial Activity of Xeruborbactam In Vitro: Assessing Spectrum and Mode of Action” (Antimicrobial Agents and Chemotherapy, 2022).
Several values for one entry are separate records, joined by “and”; a condition that tells them apart may be missing. Equal values may be shown once.

Columns and labels:
[1] = tested on: Pseudomonas aeruginosa; assay: Broth microdilution MIC (CLSI), Pseudomonas aeruginosa; format: cell-based
Summary of the method: (§1)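 Test organisms were KPC-producing clinical isolates (some enriched for porin mutations), matched isolates that lost KPC plasmids, and engineered porin/efflux mutant strains. Susceptibility was measured by broth microdilution following CLSI methods, using panels prepared in-house.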

[2] = tested on: Klebsiella pneumoniae; assay: microbe, parasite or virus in culture; format: cell-based; details: for MIC: Klebsiella pneumoniae
Summary of the method: as §1

[3] = tested on: A. baumannii strain ATCC 17978; assay: Fluorescence microscopy, cellular morphology; format: cell-based, Acinetobacter baumannii; details: xeruborbactam, meropenem 1× and 2× MIC; aztreonam 2× MIC; amdinocillin 2 μg/mL
Experimental: Single colonies of K. pneumoniae strain KPM1026a, A. baumannii strain ATCC 17978, and P. aeruginosa strain PAM1154 were picked from LB agar plates, inoculated in cation-adjusted Mueller-Hinton broth (CA-MHB), and incubated overnight at 30°C with rolling. Overnight cultures were diluted into fresh CA-MHB and incubated at 30°C, with rolling, until they reached an OD600 of ≈0.12 to 0.15 (equivalent to ~2 × 10^8 CFU/mL). Samples were then treated with compounds and incubated at 30°C, with rolling. After 1 or 2 h of treatment, cells were collected and stained with a dye mix containing FM4-64 (1 μg/mL), DAPI (4′,6-diamidino-2-phenylindole) (2 μg/mL), and SYTOX green (0.5 μM) (Molecular Probes, Invitrogen, or Thermo Fisher Scientific). Cells were transferred onto an agarose pad containing 1.2% agarose and 20% LB medium for microscopy. Microscopy was performed as previously described ([34]).

Q: Which results are given for `C[C@@H](O)[C@H]1C(=O)N2C(C(=O)O)=C(S[C@@H]3CN[C@H](C(=O)N(C)C)C3)[C@H](C)[C@H]12` [Meropenem]?
A: MIC ([1]; PAM1154 (oprM::Hg), xeruborbactam 0 µg/ml): 0.5 µg/mL; MIC ([1]; Pseudomonas aeruginosa): 0.25 µg/mL; MIC ([1]; Pseudomonas aeruginosa, PAO1): 0.06 µg/mL and 0.16 µM; MIC ([1]; Pseudomonas aeruginosa, strain PAM1032, nalB (MexAB-OprM overexpression)): 1 µg/mL; MIC ([1]; Pseudomonas aeruginosa, strain PAM1033, nfxB (MexCD-OprJ overexpression)): 0.25 µg/mL; MIC ([1]; Pseudomonas aeruginosa, strain PAM1034, nfxC (MexEF-OprN overexpression)): 0.5 µg/mL; MIC ([1]; Pseudomonas aeruginosa, strain PAM1106, mexA::Tet): 0.06 µg/mL; MIC ([1]; Pseudomonas aeruginosa, strain PAM1154, oprM::Hg): 0.06 µg/mL; MIC90 [2]: ≤0.06 µg/mL; MIC ([2]; ATCC49816): 0.03 µg/mL and 0.08 µM; MIC ([2]; KPM2601 (KPC-3; ΔompK35), alone): 32 µg/mL; MIC ([2]; KPM2631 (KPC-3; ompK36_fs ΔompK35), alone): 256 µg/mL; MIC ([2]; KPM3532 (TolQ::M189K), alone): 0.06 µg/mL; MIC ([2]; KPM3532, TolQ::M189K): 0.06 µg/mL; MIC ([2]; KPM3534 (TolQ::S31F), alone): 0.06 µg/mL; MIC ([2]; KPM3534, TolQ::S31F): 0.06 µg/mL; MIC ([2]; KPM4127 (KPM3532 TolQ::M189K/KPC-3), alone): 32 µg/mL; MIC ([2]; KPM4128 (KPM3534 TolQ::S31F/KPC-3), alone): 32 µg/mL; MIC ([2]; KPM4129 (KPM3532 TolQ::M189K/NDM-1), alone): > 64 µg/mL; MIC ([2]; KPM4130 (KPM3534 TolQ::S31F/NDM-1), alone): > 64 µg/mL; MIC ([2]; KPM4235, TolQ::IP(183–1844)PR): 0.06 µg/mL; MIC ([2]; KPM4236, TolQ::TAA at aa 103): 0.06 µg/mL; MIC ([2]; KPM4238, TolQ::S25F): 0.06 µg/mL; MIC ([2]; KPM4239, TolQ::S28F): 0.06 µg/mL; MIC ([2]; KPM4240, TolQ::S25Y): 0.06 µg/mL; MIC ([2]; no-plasmid strain KPM1026a): 0.03 µg/mL; MIC ([2]; no-plasmid strain KPM1027): 0.06 µg/mL; MIC ([2]; no-plasmid strain KPM1171): 2 µg/mL; MIC ([2]; no-plasmid strain KPM2040): 0.125 µg/mL; MIC ([2]; no-plasmid strain KPM2600): 0.06 µg/mL; MIC ([2]; no-plasmid strain KPM2613): 0.25 µg/mL; MIC ([2]; strain KPM2600, ΔompK35): 0.06 µg/mL; MIC ([2]; strain KPM2613, ΔompK35 ompK36_2040): 0.25 µg/mL; MIC ([2]; strain KPM2696, ΔacrB): 0.03 µg/mL; cellular morphology [3]: swelling and rounding but not elongation
